Source: patent US20090012144A1 (priority 2000, published 2009)

What was measured:
[1] = tested on: Amblyomma hebraeum nymphs; experiment: Amblyomma hebraeum (EH) polyphargous tick nymphs/dip treatment; format: in vivo; conditions: 10 ppm, 1 min immersion, after 4 weeks; 100% = no normal ecdysis
Description: [table] 20 mg of active compound are dissolved in 1 ml of dimethyl sulphoxide. To prepare a suitable formulation, the solution of active compound is diluted with water to the concentration desired in each case. 10 nymphs which have sucked themselves full are immersed for 1 min in the preparation of active compound to be tested. The animals are transferred to petri dishes (Ø 9.5 cm) fitted with filter paper discs and covered. After the nymphs have remained in a controlled-environment cabinet for 4 weeks, the ecdysis rate is determined. 100% means that none of the animals have undergone normal ecdysis. 0% means that all animals have undergone ecdysis.

Heliothis virescens = Heliothis virescens test (soya bean shoots, dip); format: in vivo
Description: [table] To prepare a suitable preparation of active compound, 1 part by weight of active compound is mixed with the stated amounts of solvent and emulsifier, and the concentrate is diluted with emulsifier-containing water to the desired concentration. Soya bean shoots (Glycine max) are treated by being dipped into the preparation of active compound of the desired concentration and are populated with Heliothis virescens caterpillars while the leaves are still moist. After the desired period of time, the kill in % is determined. 100% means that all caterpillars have been killed; 0% means that none of the caterpillars have been killed.

Heliothis armigera = Heliothis armigera test (soya bean shoots, dip); format: in vivo
Description: [table] To prepare a suitable preparation of active compound, 1 part by weight of active compound is mixed with the stated amounts of solvent and emulsifier, and the concentrate is diluted with emulsifier-containing water to the desired concentration. Soya bean shoots (Glycine max) are treated by being dipped into the preparation of active compound of the desired concentration and are populated with caterpillars of the cotton bollworm (Heliothis armigera) while the leaves are still moist. After the desired period of time, the kill in % is determined. 100% means that all caterpillars have been killed; 0% means that none of the caterpillars have been killed.

Tetranychus urticae = experiment: Tetranychus test (OP-resistant/dip treatment); format: in vivo
Description: [table] To produce a suitable preparation of active compound, 1 part by weight of active compound is mixed with the stated amounts of solvent and emulsifier, and the concentrate is diluted with emulsifier-containing water to the desired concentration. Bean plants (Phaseolus vulgaris) which are heavily infested by all stages of the greenhouse […] spider mite (Tetranychus urticae) are dipped into the preparation of active compound of the desired concentration. After the desired period of time, the efficacy in % is determined. 100% means that all spider mites have been killed; 0% means that none of the spider mites have been killed.

[2] = tested on: Amblyomma hebraeum nymphs; experiment: Amblyomma hebraeum (EH) tick nymphs/dip treatment, determination of the ED50; format: in vivo; conditions: 1 min immersion, ecdysis rate after 4 weeks; not determinable = 50% not reached at 1000 ppm
Description: [table] 20 mg of active compound are dissolved in 1 ml of dimethyl sulphoxide. To prepare a suitable preparation, the solution of active compound is diluted with water to the concentration desired in each case. For the determination of the ED50 value, a dose-activity curve with the concentration spectrum 1000, 300, 100, 30, 10, 3, 1, 0.3, 0.1, 0.03, 0.01 ppm is prepared. 10 nymphs which have sucked themselves full are immersed for 1 min into the preparation of active compound to be tested. The animals are transferred to petri dishes (Ø 9.5 cm) fitted with filter paper discs and covered. After the nymphs have remained in a controlled-environment cabinet for 4 weeks, the ecdysis rate is determined. 100% means that none of the animals have undergone normal ecdysis. 0% means that all animals have undergone ecdysis. The data are calculated by a 4-parameter logistic curve fit using XLfit (ID Business Solutions Ltd.). If at 1000 ppm 50% mortality has not been reached, the ED50 is judged to be not determinable.

Spodoptera frugiperda = Spodoptera frugiperda test (cabbage leaves, dip); format: in vivo
Description: [table] To produce a suitable preparation of active compound, 1 part by weight of active compound is mixed with the stated amounts of solvent and emulsifier, and the concentrate is diluted with emulsifier-containing water to the desired concentration. Cabbage leaves (Brassica oleracea) are treated by being dipped into the preparation of active compound of the desired concentration and are populated with caterpillars of the army worm (Spodoptera frugiperda) while the leaves are still moist. After the desired period of time, the kill in % is determined. 100% means that all caterpillars have been killed; 0% means that none of the caterpillars have been killed.

[3] = log P determination by HPLC (reversed-phase C 18), EEC Directive 79/831 Annex V.A8; format: physicochemical; conditions: HPLC, pH 2.3, 43° C.; read-out: log P (pH 2.3)
Description: The log P values given in the tables and Preparation Examples above are determined in accordance with EEC Directive 79/831 Annex V.A8 by HPLC (High Performance Liquid Chromatography) using a reversed-phase column (C 18). Temperature: 43° C. […]
Calibration was carried out using unbranched alkan-2-ones (having 3 to 16 carbon atoms) with known log P values (determination of the log P values by the retention times using linear interpolation between two successive […]).

Structure (SMILES): CCOc1cc(C(C)(C)C)ccc1[C@@H]1CCC(c2c(F)cccc2F)=N1 [drawing 105]
- Effects on ecdysis in % [1]: 0%

Structure (SMILES): Fc1cccc(F)c1C1=NC(c2ccc(-c3ccc(OC(F)(F)F)cc3)cc2)CC1 (stereo not drawn) [drawing 63]
- Kill rate in % after 6 d (Heliothis virescens; 0.32 ppm): 20%

Structure (SMILES): Fc1cccc(F)c1C1=N[C@@H](c2ccc(-c3ccc(SC(F)(F)F)cc3)cc2)CC1 [drawing 61]
- Kill rate in % after 6 d (Heliothis armigera; 1.6 ppm): 100%

Structure (SMILES): Fc1cccc(F)c1C1=N[C@@H](c2ccc(-c3ccc(OC(F)(F)F)cc3)cc2)CC1 [drawing 100]
- Kill rate in % after 7 d (Tetranychus urticae; 0.0128 ppm): 95%

Structure (SMILES): FC(F)=C(F)Oc1ccc(-c2ccc([C@H]3CCC(c4c(F)cccc4F)=N3)cc2)cc1
- Kill rate in % after 7 d (Tetranychus urticae; 0.01 ppm): 98%

Structure (SMILES): Fc1cccc(F)c1C1=N[C@H](c2ccc(-c3ccc(OC(F)(F)F)cc3)cc2)CC1 [drawing 65]
- Kill rate in % after 6 d (Heliothis virescens; 8 ppm): 0%

Structure (SMILES): CCOc1cc(C(C)(C)C)ccc1[C@H]1CCC(c2c(F)cccc2F)=N1 [drawing 110]
- ED 50 (ppm) [2]: 0.14 ppm

Structure (SMILES): CCOc1cc(C(C)(C)C)ccc1[C@H]1CCC(c2c(F)cccc2F)=N1 [drawing 104]
- Effects on ecdysis in % [1]: 100%

Structure (SMILES): Fc1cccc(F)c1C1=N[C@@H](c2ccc(-c3ccc(SC(F)(F)F)cc3)cc2)CC1 [drawing 66]
- Kill rate in % after 6 d (Heliothis virescens; 1.6 ppm): 100%

Structure (SMILES): CCOc1cc(C(C)(C)C)ccc1[C@@H]1CCC(c2c(F)cccc2F)=N1 [drawing 99, reference compound]
- Kill rate in % after 7 d (Tetranychus urticae; 8 ppm): 0%

Structure (SMILES): Fc1cccc(F)c1C1=N[C@H](c2ccc(-c3ccc(SC(F)(F)F)cc3)cc2)CC1 [drawing 62, reference compound]
- Kill rate in % after 6 d (Heliothis armigera; 1.6 ppm): 0%

Structure (SMILES): CCOc1cc(C(C)(C)C)ccc1[C@H]1CCC(c2c(F)cccc2F)=N1 [drawing 98]
- Kill rate in % after 7 d (Tetranychus urticae; 0.32 ppm): 90%

Structure (SMILES): Fc1cccc(F)c1C1=N[C@H](c2ccc(-c3ccc(OC(F)(F)F)cc3)cc2)CC1 [drawing 101, reference compound]
- Kill rate in % after 7 d (Tetranychus urticae; 0.0128 ppm): 0%

Structure (SMILES): CCOc1cc(C(C)(C)C)ccc1C1CCC(c2c(F)cccc2F)=N1 (stereo not drawn) [drawing 109]
- ED 50 (ppm) [2]: 0.27 ppm

Structure (SMILES): CCOc1cc(C(C)(C)C)ccc1C1CCC(c2c(F)cccc2F)=N1 (stereo not drawn) [drawing 103]
- Effects on ecdysis in % [1]: 100%

Structure (SMILES): Fc1cccc(F)c1C1=N[C@H](c2ccc(-c3ccc(OC(F)(F)F)cc3)cc2)CC1 [drawing 60, reference compound]
- Kill rate in % after 6 d (Heliothis armigera; 8 ppm): 0%

Structure (SMILES): Fc1cccc(F)c1C1=N[C@H](c2ccc(-c3ccc(SC(F)(F)F)cc3)cc2)CC1 [drawing 67]
- Kill rate in % after 6 d (Heliothis virescens; 1.6 ppm): 15%

Structure (SMILES): Fc1cccc(F)c1C1=NC(c2ccc(-c3ccc(OC(F)(F)F)cc3)cc2)CC1 (stereo not drawn) [drawing 106]
- Effects on ecdysis in % [1]: 100%

Structure (SMILES): O=S(=O)(c1ccc(-c2ccc([C@H]3CCC(c4c(F)cccc4F)=N3)cc2)cc1)C(F)F [I-14]
- melting point: 148 to 150 °C

Structure (SMILES): CCOc1cc(C(C)(C)C)ccc1C1CCC(c2c(F)cccc2F)=N1 (stereo not drawn) [drawing 97, reference compound]
- Kill rate in % after 7 d (Tetranychus urticae; 0.32 ppm): 0%

Structure (SMILES): Fc1cccc(F)c1C1=N[C@@H](c2ccc(-c3ccc(OC(F)(F)F)cc3)cc2)CC1 [drawing 113]
- ED 50 (ppm) [2]: 0.20 ppm

Structure (SMILES): [O-][S+](c1ccc(-c2ccc([C@H]3CCC(c4c(F)cccc4F)=N3)cc2)cc1)C(F)(F)F (stereo partly drawn) [I-10]
- melting point: 146 to 148 °C

Structure (SMILES): Fc1cccc(F)c1C1=NC(c2ccc(-c3ccc(OC(F)(F)F)cc3)cc2)CC1 (stereo not drawn) [drawing 88]
- Kill rate in % after 6 d (Spodoptera frugiperda; 0.02 ppm): 25%

Structure (SMILES): Fc1cccc(F)c1C1=N[C@@H](c2ccc(-c3ccc(OC(F)(F)F)cc3)cc2)CC1 [drawing 64]
- Kill rate in % after 6 d (Heliothis virescens; 0.32 ppm): 90%

Structure (SMILES): Fc1cccc(F)c1C1=N[C@H](c2ccc(-c3ccc(OC(F)(F)F)cc3)cc2)CC1 [drawing 108]
- Effects on ecdysis in % [1]: 0%

Structure (SMILES): OC1([C@H]2CCC(c3c(F)cccc3F)=N2)C=CC(c2ccccc2)=CC1 (stereo partly drawn) [I-9, 4′-[(2R)-5-(2,6-difluorophenyl)-3,4-dihydro-2H-pyrrol-2-yl]-1,1′-biphenyl-4′-ol]
- melting point: 217 °C

Structure (SMILES): Fc1cccc(F)c1C1=NC(c2ccc(-c3ccc(SC(F)(F)F)cc3)cc2)CC1 (stereo not drawn) [drawing 91]
- Kill rate in % after 6 d (Spodoptera frugiperda; 0.0128 ppm): 20%

Structure (SMILES): Fc1cccc(F)c1C1=N[C@@H](c2ccc(-c3ccc(OC(F)(F)F)cc3)cc2)CC1 [drawing 59]
- Kill rate in % after 6 d (Heliothis armigera; 8 ppm): 100%

Structure (SMILES): Fc1cccc(F)c1C1=N[C@@H](c2ccc(-c3ccc(SC(F)(F)F)cc3)cc2)CC1 [drawing 92]
- Kill rate in % after 6 d (Spodoptera frugiperda; 0.0128 ppm): 65%

Structure (SMILES): Fc1cccc(F)c1C1=N[C@H](c2ccc(-c3ccc(OC(F)(F)F)cc3)cc2)CC1 [drawing 90]
- Kill rate in % after 6 d (Spodoptera frugiperda; 8 ppm): 0%

Structure (SMILES): Fc1cccc(F)c1C1=N[C@@H](c2ccc(-c3ccc(OC(F)(F)F)cc3)cc2)CC1 [drawing 107]
- Effects on ecdysis in % [1]: 100%

Structure (SMILES): CC(C)(C)[Si](C)(C)Oc1ccc(-c2ccc([C@H]3CCC(c4c(F)cccc4F)=N3)cc2)cc1 [I-8, (2R)-2-(4′-{[tert-butyl(dimethyl)silyl]oxy}-1,1′-biphenyl-4-yl)-5-(2,6-difluorophenyl)-3,4-dihydro-2H-pyrrole]
- chromatographic logP [3]: 6.2
- melting point: 33 °C

Structure (SMILES): Fc1cccc(F)c1C1=N[C@H](c2ccc(-c3ccc(OC(F)(F)F)cc3)cc2)CC1 [drawing 114]
- ED 50 (ppm) [2]: 549.86 ppm

Structure (SMILES): CCOc1cc(C(C)(C)C)ccc1[C@@H]1CCC(c2c(F)cccc2F)=N1 [drawing 111]
- ED 50 (ppm) [2]: notdeterminable

Structure (SMILES): Fc1cccc(F)c1C1=NC(c2ccc(-c3ccc(OC(F)(F)F)cc3)cc2)CC1 (stereo not drawn) [drawing 112]
- ED 50 (ppm) [2]: 0.58 ppm
